Results as given in ChEMBL document CHEMBL5634090, “Design of phenothiazine-based cationic amphiphilic derivatives incorporating arginine residues: Potential membrane-active broad-spectrum antimicrobials combating pathogenic bacteria in vitro and in vivo” (Eur J Med Chem, 2023).
Values after ≈ are worked out from the molar mass of the structure shown. Values joined by “and” are separate entries in the source; they are usually repeats but may differ in a detail not shown here. Identical values can stand only once. Active and inactive are the calls of the source. The rule behind the calls is not given here.

Key:
Staphylococcus aureus [1] = assay: Antibacterial activity against Staphylococcus aureus ATCC 29213 in presence of 1 mmol/L Mg2+ by broth microdilution method; type: functional
[2] = Cytotoxicity against HEK293 cells assessed as cell survival rate at 50 ug/ml by CCK-8 assay relative to control; type: toxicity, cell-based; conditions: human, at 50 µg/mL, read-out: Activity
Klebsiella pneumoniae [3] = assay: Antibacterial activity against Klebsiella pneumoniae ATCC 10031 in presence of 20 umol/L Fe3+ by broth microdilution method; type: functional
Klebsiella pneumoniae [4] = assay: Antibacterial activity against Klebsiella pneumoniae ATCC 10031 assessed as loss in cell viability at 8 times MIC incubated for 4 hrs by LIVE/DEAD BacLight bacterial viability assay; type: functional, organism-based; conditions: Cell membrane
Klebsiella pneumoniae [5] = assay: Inhibition of biofilm formation in Klebsiella pneumoniae ATCC 10031 at 6.25 ug/ml by crystal violet staining assay relative to control; type: functional
Staphylococcus aureus [6] = assay: Inhibition of biofilm formation in Staphylococcus aureus ATCC 29213 at 0.78 ug/ml by crystal violet staining assay relative to control; type: functional
Staphylococcus aureus [7] = assay: Antibacterial activity against methicillin resistant Staphylococcus aureus N315 in presence of 140 mmol/L Na+ by broth microdilution method; type: functional
[8] = Cytotoxicity against HEK293 cells assessed as cell survival rate at 12.5 ug/ml by CCK-8 assay relative to control; type: toxicity, cell-based; conditions: human, at 12.5 µg/mL, read-out: Activity
Klebsiella pneumoniae [9] = assay: Antibiofilm activity against 24 hrs preformed biofilm in Klebsiella pneumoniae ATCC 10031 assessed as reduction in biofilm viability at 25 ug/ml relative to control; type: functional; conditions: dose 25 µg/ml
Klebsiella pneumoniae [10] = assay: Antibacterial activity against Klebsiella pneumoniae ATCC 14581 by microbroth dilution assay; type: functional
Klebsiella pneumoniae [11] = assay: Antibacterial activity against Klebsiella pneumoniae ATCC 10031 in presence of 1 mmol/L Mg2+ by broth microdilution method; type: functional
Klebsiella pneumoniae [12] = assay: Antibiofilm activity against 24 hrs preformed biofilm in Klebsiella pneumoniae ATCC 10031 assessed as reduction in biofilm viability at 0.78 ug/ml relative to control; type: functional; conditions: dose 0.78 µg/ml
[13] = Selectivity index, ratio of CC50 for cytotoxicity against mouse NCTC clone 929 cells to MIC for antibacterial activity against methicillin resistant Staphylococcus aureus NCTC 10442; type: toxicity, cell-based; conditions: read-out: Selectivity Index
[14] = Cytotoxicity against HEK293 cells assessed as cell survival rate at 6.25 ug/ml by CCK-8 assay relative to control; type: toxicity, cell-based; conditions: human, at 6.25 µg/mL, read-out: Activity
Staphylococcus aureus [15] = assay: Antibacterial activity against methicillin resistant Staphylococcus aureus NCTC 10442 in presence of 19 umol/L Zn2+ by broth microdilution method; type: functional
Staphylococcus aureus [16] = assay: Inhibition of biofilm formation in Staphylococcus aureus ATCC 29213 by crystal violet staining assay; type: functional, organism-based; conditions: dose 0.39-12.5 µg/ml
Klebsiella pneumoniae [17] = assay: Antibacterial activity against Klebsiella pneumoniae ATCC 14581 in presence of 2.5 mmol/L Ca2+ by broth microdilution method; type: functional
Staphylococcus aureus [18] = assay: Antibiofilm activity against 24 hrs preformed biofilm in Staphylococcus aureus ATCC 29213 assessed as reduction in biofilm viability at 6.25 ug/ml relative to control; type: functional; conditions: dose 6.25 µg/ml
Klebsiella pneumoniae [19] = assay: Antibacterial activity against Klebsiella pneumoniae ATCC 10031 assessed as cell membrane disruption by SYTOX Green assay; type: functional, organism-based
Klebsiella pneumoniae [20] = assay: Antibacterial activity against Klebsiella pneumoniae ATCC 10031 assessed as loss in membrane integrity at 8 times MIC incubated for 4 hrs by LIVE/DEAD BacLight bacterial viability assay; type: functional, organism-based; conditions: Cell membrane
[21] = Cytotoxicity against mouse NCTC clone 929 cells assessed as cell survival rate at 3.125 ug/ml by CCK-8 assay relative to control; type: toxicity, cell-based; conditions: NCTC clone 929 (L929) cells, at 3.125 µg/mL, read-out: Activity
Klebsiella pneumoniae [22] = assay: Antibacterial activity against Klebsiella pneumoniae ATCC 10031 in presence of 19 umol/L Zn2+ by broth microdilution method; type: functional
Staphylococcus aureus [23] = assay: Antibacterial activity against Staphylococcus aureus ATCC 29213 in presence of 4.5 mmol/L K+ by broth microdilution method; type: functional
Staphylococcus aureus [24] = assay: Antibacterial activity against Staphylococcus aureus ATCC 29213 by microbroth dilution assay; type: functional
Staphylococcus aureus [25] = assay: Inhibition of biofilm formation in Staphylococcus aureus ATCC 29213 at 3.125 ug/ml by crystal violet staining assay relative to control; type: functional
Pseudomonas aeruginosa [26] = assay: Antibacterial activity against Pseudomonas aeruginosa ATCC 9027 in presence of 1.00 mmol/L Mg2+ by broth microdilution method; type: functional
Escherichia coli [27] = assay: Antibacterial activity against Escherichia coli ATCC 25922 in presence of 1 mmol/L Mg2+ by broth microdilution method; type: functional
[28] = Cytotoxicity against mouse NCTC clone 929 cells by CCK-8 assay; type: toxicity, cell-based; conditions: NCTC clone 929 (L929) cells
[29] = Selectivity index, ratio of CC50 for cytotoxicity against mouse NCTC clone 929 cells to MIC for antibacterial activity against Escherichia coli ATCC 25922; type: toxicity, cell-based; conditions: read-out: Selectivity Index
[30] = Selectivity index, ratio of CC50 for cytotoxicity against HEK293 cells to MIC for antibacterial activity against methicillin resistant Staphylococcus aureus N315; type: toxicity, cell-based; conditions: human, read-out: Selectivity Index
Staphylococcus aureus [31] = assay: Antibacterial activity against Staphylococcus aureus ATCC 29213 in presence of 20 umol/L Fe2+ by broth microdilution method; type: functional
Staphylococcus aureus [32] = assay: Antibacterial activity against methicillin resistant Staphylococcus aureus NCTC 10442 in presence of 4.5 mmol/L K+ by broth microdilution method; type: functional
Klebsiella pneumoniae [33] = assay: Antibiofilm activity against 24 hrs preformed biofilm in Klebsiella pneumoniae ATCC 10031 assessed as reduction in biofilm viability at 12.5 ug/ml relative to control; type: functional; conditions: dose 12.5 µg/ml
[34] = Cytotoxicity against mouse NCTC clone 929 cells assessed as cell survival rate at 12.5 ug/ml by CCK-8 assay relative to control; type: toxicity, cell-based; conditions: NCTC clone 929 (L929) cells, at 12.5 µg/mL, read-out: Activity
Staphylococcus aureus [35] = assay: Antibacterial activity against Staphylococcus aureus ATCC 29213 in presence of 140 mmol/L Na+ by broth microdilution method; type: functional
Escherichia coli [36] = assay: Antibacterial activity against Escherichia coli ATCC 25922 by microbroth dilution assay; type: functional
Staphylococcus aureus [37] = assay: Antibacterial activity against methicillin resistant Staphylococcus aureus N315 in presence of 4.5 mmol/L K+ by broth microdilution method; type: functional
[38] = Hemolytic activity in rabbit erythrocytes; type: toxicity, cell-based, Oryctolagus cuniculus, Erythrocyte
Escherichia coli [39] = assay: Antibacterial activity against Escherichia coli ATCC 25922 in presence of 4.5 mmol/L K+ by broth microdilution method; type: functional
Staphylococcus aureus [40] = assay: Antibacterial activity against Staphylococcus aureus ATCC 29213 infected in cyclophosphamide immunosuppressed keratitis mouse model assessed as log reduction in number of viable bacterial colonies at 10 mg/ml administrated tropically; type: functional
Pseudomonas aeruginosa [41] = assay: Antibacterial activity against Pseudomonas aeruginosa ATCC 9027 by microbroth dilution assay; type: functional

SMILES: CCCCCCCN1c2ccccc2Sc2ccc(OCC(=O)N[C@@H](CCCNC(=N)N)C(=O)N[C@@H](CCCNC(=N)N)C(N)=O)cc21
- MIC (Staphylococcus aureus [1]): 3.12 µg/mL
- viability at 50 ug/ml [2]: 56%
- MIC (Klebsiella pneumoniae [3]): 6.25 µg/mL
- Activity (Klebsiella pneumoniae [4]): Active
- inhibition at 6.25 µg/mL (Klebsiella pneumoniae [5]): 90%
- inhibition at 0.78 µg/mL (Staphylococcus aureus [6]): 45%
- MIC (Staphylococcus aureus [7]): 1.56 µg/mL
- viability at 12.5 ug/ml [8]: 80.6%
- Activity (Klebsiella pneumoniae [9]): 4.13%
- MIC (Klebsiella pneumoniae [10]): 3.12 µg/mL (≈ 4.58 µM)
- MIC (Klebsiella pneumoniae [11]): 3.12 µg/mL
- Activity (Klebsiella pneumoniae [12]): 82.83%
- selectivity ratio [13]: 8
- viability at 6.25 ug/ml [14]: 87.7%
- MIC (Staphylococcus aureus [15]): 1.56 µg/mL
- inhibition (Staphylococcus aureus [16]): Dose-Dependent Effect
- MIC (Klebsiella pneumoniae [17]): 3.12 µg/mL
- Activity (Staphylococcus aureus [18]): 15.93%
- Activity (Klebsiella pneumoniae [19]): Dose-Dependent Effect
- Activity (Klebsiella pneumoniae [20]): Active
- viability at 3.125 ug/ml [21]: 97.9%
- MIC (Klebsiella pneumoniae [22]): 6.25 µg/mL
- MIC (Staphylococcus aureus [23]): 1.56 µg/mL
- MIC (Staphylococcus aureus [24]): 1.56 µg/mL (≈ 2.28 µM)
- inhibition at 3.125 µg/mL (Staphylococcus aureus [25]): 87.2%
- MIC (Pseudomonas aeruginosa [26]): 6.25 µg/mL
- MIC (Escherichia coli [27]): 3.12 µg/mL
- CC50 [28]: > 50 µg/mL and 73.3 µM
- selectivity ratio [29]: 8
- selectivity ratio [30]: 8
- MIC (Staphylococcus aureus [31]): 1.56 µg/mL
- MIC (Staphylococcus aureus [32]): 1.56 µg/mL
- Activity (Klebsiella pneumoniae [33]): 5.88%
- viability at 12.5 ug/ml [34]: 70.8%
- MIC (Staphylococcus aureus [35]): 1.56 µg/mL
- MIC (Escherichia coli [36]): 3.12 µg/mL (≈ 4.58 µM)
- MIC (Staphylococcus aureus [37]): 1.56 µg/mL
- HC50 [38]: 281 µg/mL
- MIC (Escherichia coli [39]): 3.12 µg/mL
- log(activity) (Staphylococcus aureus [40]): 5.28
- MIC (Pseudomonas aeruginosa [41]): 6.25 µg/mL (≈ 9.15 µM)
